# Results from paper PMC6225212, “Synthesis and Pharmacological Evaluation of Novel Silodosin-Based Arylsulfonamide Derivatives as α1A/α1D-Adrenergic Receptor Antagonist with Potential Uroselective Profile” (Molecules : A Journal of Synthetic Chemistry and Natural …, 2018).
# Experiments:
# [1] = target: T1, α1D-ARs (Homo sapiens, UniProt P25100); assay: Intrinsic activity at α1D-ARs, aequorin calcium mobilization luminescence; format: cell-based; design: key to α1D Profile: ANT—antagonist; AGO—agonist; details: for IC50: antagonist mode, three independent experiments; for EC50: antagonist, as worded in abstract and text, read-out: EC50(α1D); for α1D Profile: functional profile
# T1 sequence (P25100 1-572): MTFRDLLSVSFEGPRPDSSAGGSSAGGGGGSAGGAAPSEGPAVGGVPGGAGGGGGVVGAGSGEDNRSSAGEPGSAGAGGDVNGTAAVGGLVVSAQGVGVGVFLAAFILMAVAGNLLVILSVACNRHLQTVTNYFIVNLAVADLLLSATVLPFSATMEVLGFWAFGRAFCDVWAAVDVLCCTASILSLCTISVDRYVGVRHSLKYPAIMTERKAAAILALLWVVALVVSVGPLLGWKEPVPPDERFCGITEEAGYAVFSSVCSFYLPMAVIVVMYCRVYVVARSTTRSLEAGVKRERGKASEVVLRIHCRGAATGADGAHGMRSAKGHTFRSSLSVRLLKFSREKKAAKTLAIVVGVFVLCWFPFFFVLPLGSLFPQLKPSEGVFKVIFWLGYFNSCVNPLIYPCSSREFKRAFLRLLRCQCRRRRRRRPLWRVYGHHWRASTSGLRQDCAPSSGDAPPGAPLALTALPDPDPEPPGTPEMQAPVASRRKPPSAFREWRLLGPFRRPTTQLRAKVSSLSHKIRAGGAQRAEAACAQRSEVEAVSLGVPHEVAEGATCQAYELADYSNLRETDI
# Protocol: The intrinsic activity at α1A-ARs of the selected compounds was assessed by fluorescence detection (Invitrogen, Thermo Fisher Scientific, Carlsbad, CA, USA) of β-lactamase reporter genes using a FRET-enabled substrate. The intrinsic activity at α1B-ARs and α1D-ARs was determined by luminescence detection (PerkinElmer, Zaventem, Belgium) of calcium mobilization using the recombinant-expressed jellyfish photoprotein (Aequorin).
# Intrinsic activity assay to α1B- and α1D-ARs was performed according to the manufacturer of the ready-to-use cells with stable expression of the α1B-adrenoreceptors and α1D-adrenoreceptors, respectively (PerkinElmer, Zaventem, Belgium). For measurement, cells (frozen, ready to use) were thawed and resuspended in 10 mL of assay buffer containing 5 µM coelenterazine h. This cells suspension was put in a 10 mL Falcon tube, fixed onto a rotating heel, and incubated for overnight at rt in the dark (8 rpm; 45° angle). Cells were diluted with Assay Buffer to 5000 cells/20 µL. Agonistic ligands 2 × (50 µL/well), diluted in Assay Buffer, were prepared in ½ white polystyrene area plates, and the cell suspension was dispensed in 50 µL volume on the ligands using the injector. The light emitted was recorded for 20 s. Cells with antagonist were incubated for 15 min at room temperature. Thereafter, 50 µL of agonist (3 × EC80 final concentration) was injected into the mix of cells and antagonist and the light emitted was recorded for 20 s.
# [2] = target: T2, human 5-HT1A (Homo sapiens, UniProt P08908); assay: Radioligand binding [3H]-8-OH-DPAT, membranes from CHO-K1 cells; details: ± SEM, two independent experiments
# T2 construct: expressed in transfected cells; host or cells: CHO-K1
# T2 sequence (P08908 1-422): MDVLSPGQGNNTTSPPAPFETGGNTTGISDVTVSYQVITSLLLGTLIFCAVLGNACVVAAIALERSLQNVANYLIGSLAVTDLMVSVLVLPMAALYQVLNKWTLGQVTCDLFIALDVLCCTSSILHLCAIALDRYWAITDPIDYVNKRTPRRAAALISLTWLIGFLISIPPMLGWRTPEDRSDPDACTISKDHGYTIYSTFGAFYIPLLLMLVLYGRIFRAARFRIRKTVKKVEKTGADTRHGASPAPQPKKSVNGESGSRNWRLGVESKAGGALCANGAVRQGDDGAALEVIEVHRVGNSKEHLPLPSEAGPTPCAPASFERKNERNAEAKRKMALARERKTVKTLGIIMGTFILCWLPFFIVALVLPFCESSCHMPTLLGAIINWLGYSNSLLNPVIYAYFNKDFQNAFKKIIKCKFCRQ
# Protocol: Experiments were performed using membranes from CHO-K1 cells stably transfected with the human 5-HT1A and 5-HT7Rs according to the methods previously described.
# Binding experiments were conducted in 96-well microplates in a total volume of 250 μL of appropriate buffers. The composition of the assay buffers was as follows: 50 mM Tris-HCl, 0.1 mM EDTA, 10 mM MgCl2. The reaction mix included 50 μL solution of test compound, 50 μL of radioligand, and 150 μL of diluted membranes. All assays were incubated for 1 h (5-HT1ARs) or 2 h (5-HT7Rs) at 37 °C. Radioactivity was counted in MicroBeta2 scintillation counter (PerkinElmer, Waltham, MA, USA). Nonspecific binding is defined with 10 µM of 5-HT and 10 µM of methiothepine in 5-HT1AR and 5-HT7R binding experiments, respectively. Each compound was tested in screening assay at two final concentrations of 10 µM and 1 µM.
# [3] = In vitro metabolic stability in rat-liver microsomes (RLM); format: in vitro ADME; details: for Major Metabolic Pathway: RLM; for microsomal CLint at 10 μM / half-life at 10 μM: male, rat, rat liver microsomes, pH 7.4, RLM 0.2 mg/mL, compound 10 μM, 37 °C; for half-life at 10 μM: read-out: t½
# Protocol: In vitro biotransformation assays of selected compounds 9 and 10 were performed using rat-liver microsomes (RLM), potassium-phosphate buffer, NADPH-regenerating system (NADP, glucose-6-phosphate, glucose-6-phosphate dehydrogenase), and levallorphan as internal standard, according to the previously published procedure. Compound I and the drug tamsulosin were used as reference standard. UPLC/MS analysis (Waters Corporation, Milford, MA, USA) was performed to determine the quantity of the starting material left in solution. The in vitro half-time (t1/2) for test compounds was determined from the slope of the linear regression of ln % parent compound remaining versus incubation time. The calculated t1/2 was incorporated into the following equation to obtain intrinsic clearance: (Clint) = (volume of incubation [µL]/protein in the incubation [mg]) × 0.693/t1/2.
# Metabolic stability of tested compound was analyzed using incubation systems, composed of: tested compounds (10 μM), RLMs (microsomes from rat male liver, pooled; 0.2 mg/mL; Sigma Aldrich), NADPH-regenerating system (NADP+, glucose-6-phosphate and glucose-6-phosphate dehydrogenase in 100mM potassium buffer, pH 7.4; all from Sigma Aldrich), and potassium buffer, pH 7.4. […] Firstly, all samples contained incubation mixture (without NADPH-regenerating system) were preincubated in a thermoblock at 37 °C for 10 min. Then reaction was initiated by the addition of NADPH-regenerating system. In control samples NADPH-regenerating system was replaced with potassium buffer. Probes were incubated in thermoblock for 15 and 30 min at 37 °C. After addition of internal standard (levallorphan, 10 μM), the biotransformation process was stopped by addition of perchloric acid (69–72%, by volume). Next, samples were centrifuged (Centrifuge 5427 R, Eppendorf, Hamburg, Germany) and supernatants were analyzed using UPLC/MS (Waters Corporation). All experiments were run in duplicates. Half-life time was evaluated using a nonlinear regression model using Graph Pad Prism software (Graph Pad Software, La Jolla, San Diego, CA, USA) and intrinsic clearance was calculated from the equation Clint = (volume of incubation [μL]/protein in the incubation [mg]) ×∙0.693/t1/2 [33].
IC50 [1] [nM],EC50 [1] [nM],α1D Profile [1],Ki [2] [nM],Major Metabolic Pathway [3],microsomal CLint at 10 μM [3] [µL/min/mg],half-life at 10 μM [3] [min],SMILES
1.1,1.1,ANT,70 ± 3.5,N-dealkylation,67,51.5,"O=S(=O)(NCC1CCN(CCOc2ccccc2OCC(F)(F)F)CC1)c1cccc(Cl)c1F [Compound 9, 3-Chloro-2-fluoro-N-[(1-{2-[(2,2,2-trifluoroethoxy)phenoxy]ethyl}piperidin-4-yl)methyl]benzenesulfonamide]"
2.7,1.1 to 2.7,ANT,46 ± 0.6,N-dealkylation,91.7,37.8,"O=S(=O)(NCC1CCN(CCOc2ccccc2OCC(F)(F)F)CC1)c1cc(Cl)ccc1F [Compound 10, 5-Chloro-2-fluoro-N-[(1-{2-[(2,2,2-trifluoroethoxy)phenoxy]ethyl}piperidin-4-yl)methyl]benzenesulfonamide]"
0.005,–,ANT,–,N-dealkylation,41,83,"CCOc1ccccc1OCCN[C@H](C)Cc1ccc(OC)c(S(N)(=O)=O)c1 [tamsulosin, reference compound]"
